Reference: US10017509B2, “Macrocylic pyrimidine derivatives” (Janssen Pharmaceutica NV, priority 2014, dated 2018)

Key:
EF2K [1] = molecular target: T1, EF2K (Homo sapiens, UniProt O00418); experiment: EF2K cell-based assay (P-EF2 AlphaLISA, 2-deoxyglucose stimulated MCF10A cells); settings: 2.5 mM 2-deoxyglucose stimulated, P-EF2 Thr56, pIC50 = -log IC50 (M), read-out: eEF2K_C_PThr56 pIC50 (converted)
T1 construct: host or cells: LN-229 cell lysate
T1 sequence (O00418 1-725): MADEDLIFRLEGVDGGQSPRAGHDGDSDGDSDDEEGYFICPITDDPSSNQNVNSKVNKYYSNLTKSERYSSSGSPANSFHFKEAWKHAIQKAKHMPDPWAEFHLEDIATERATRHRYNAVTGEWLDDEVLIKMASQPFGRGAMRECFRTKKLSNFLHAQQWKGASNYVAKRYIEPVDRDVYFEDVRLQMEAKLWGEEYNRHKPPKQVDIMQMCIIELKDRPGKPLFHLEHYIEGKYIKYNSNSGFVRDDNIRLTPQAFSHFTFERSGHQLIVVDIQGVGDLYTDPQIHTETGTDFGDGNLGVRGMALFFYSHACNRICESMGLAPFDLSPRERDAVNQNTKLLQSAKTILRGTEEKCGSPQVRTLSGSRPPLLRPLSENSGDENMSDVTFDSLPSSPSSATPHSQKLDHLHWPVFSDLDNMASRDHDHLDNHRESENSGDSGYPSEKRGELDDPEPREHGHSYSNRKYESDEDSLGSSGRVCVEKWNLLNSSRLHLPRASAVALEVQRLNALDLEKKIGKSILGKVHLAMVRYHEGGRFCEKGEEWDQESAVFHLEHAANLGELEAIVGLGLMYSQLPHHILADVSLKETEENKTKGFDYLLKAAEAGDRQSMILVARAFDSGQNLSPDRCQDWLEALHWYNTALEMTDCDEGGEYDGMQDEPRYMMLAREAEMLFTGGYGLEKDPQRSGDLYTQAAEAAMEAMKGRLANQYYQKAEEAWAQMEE
How it was run: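 MCF10A cells, after 24 h culture, treated 1 h with compound then stimulated 4 h with 2.5 mM 2-deoxyglucose to activate AMPK. Lysates in M-PER with protease/phosphatase inhibitors assayed for P-EF2 by AlphaLISA; pIC50 = −log IC50 (M).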

EF2K [2] = molecular target: T1, EF2K; experiment: Biochemical EF2K lysate-based kinase assay (AlphaLISA p-eEF2 Thr56); settings: pIC50 = -log IC50 (M), read-out: eEF2K_C_alphalisa pIC50 (converted)
How it was run: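 LN-229 glioblastoma lysate supplied both EF2K and eEF2 substrate; compound incubated 15 min at room temperature in pH 6.6 buffer with 10 mM Mg2+ and 10 mM ATP. EDTA-stopped; phospho-eEF2 Thr56 quantified by AlphaLISA sandwich, final read after overnight. Values as pIC50.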

[3] = molecular target: Vps34 (PIK3C3 lipid kinase) (Homo sapiens, UniProt Q8NEB9); experiment: Biochemical Vps34 lipid kinase assay (ADP-Glo); settings: for remaining activity at 1 µM: 1 h, read-out: VPS34_1microM_% of cntrl; for remaining activity at 1 µM / VPS34_1microM_% of cntrl: single dose 1 μM compound, residual activity compared to control (DMSO); for IC50: serial half-log dilution 10 μM to 0.3 nM, pIC50 = -log IC50 (M)
Chain of Vps34 (PIK3C3 lipid kinase) (Q8NEB9 whole entry, species assumed): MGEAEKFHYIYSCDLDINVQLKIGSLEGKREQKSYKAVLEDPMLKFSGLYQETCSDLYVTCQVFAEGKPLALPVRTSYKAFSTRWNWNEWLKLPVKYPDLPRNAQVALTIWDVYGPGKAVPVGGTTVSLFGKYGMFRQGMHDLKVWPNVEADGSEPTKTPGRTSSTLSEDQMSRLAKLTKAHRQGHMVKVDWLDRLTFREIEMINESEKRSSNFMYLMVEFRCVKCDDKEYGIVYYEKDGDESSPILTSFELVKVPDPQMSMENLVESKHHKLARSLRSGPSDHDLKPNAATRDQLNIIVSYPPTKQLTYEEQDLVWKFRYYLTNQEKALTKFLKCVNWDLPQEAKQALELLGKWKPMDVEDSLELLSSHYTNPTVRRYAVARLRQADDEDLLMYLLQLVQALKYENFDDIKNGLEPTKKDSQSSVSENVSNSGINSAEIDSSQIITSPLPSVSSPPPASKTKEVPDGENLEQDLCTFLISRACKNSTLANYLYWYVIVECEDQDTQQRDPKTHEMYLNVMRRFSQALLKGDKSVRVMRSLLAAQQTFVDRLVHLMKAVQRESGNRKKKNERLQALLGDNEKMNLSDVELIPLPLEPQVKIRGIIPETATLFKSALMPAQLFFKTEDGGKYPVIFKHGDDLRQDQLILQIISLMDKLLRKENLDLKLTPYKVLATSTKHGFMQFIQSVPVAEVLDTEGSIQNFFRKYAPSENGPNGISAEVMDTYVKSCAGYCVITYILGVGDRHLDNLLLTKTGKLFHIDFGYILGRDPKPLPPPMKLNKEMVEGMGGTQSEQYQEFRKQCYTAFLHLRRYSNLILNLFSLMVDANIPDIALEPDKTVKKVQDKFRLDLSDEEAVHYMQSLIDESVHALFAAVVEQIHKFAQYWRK
How it was run: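 ADP-Glo luminescence assay of PIK3C3 (7.6 nM) with 50 µM substrate and 20 µM ATP (apparent Km) in HEPES pH 7.5, 100 mM NaCl, 3 mM MnCl2, CHAPS, DTT; 60 min, 30 °C. Single dose 1 µM (residual activity vs DMSO) or half-log series 10 µM-0.3 nM giving pIC50.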

| Compound | IC50 (EF2K [1]) | IC50 (EF2K [2]) | remaining activity at 1 µM [3] | IC50 [3] | VPS34_1microM_% of cntrl [3] |
| --- | --- | --- | --- | --- | --- |
| CCCN1CCNC(=O)CN2CCN(CC2)Cc2cccc(c2)Nc2nccc(n2)-c2ccc(nc2)C1 [Compound 43] | 1.91e-07 M | 6.17e-09 M | 4.32% | 1.07e-07 M |  |
| O=C1CN2CCN(CC2)Cc2cccc(c2)Nc2nccc(n2)-c2ccc(nc2)NCCCN1 [Compound 31] | ~3.98e-06 M | 1.07e-07 M | 8.47% | 8.71e-08 M |  |
| O=C1CN2CCN(CC2)Cc2cc(F)cc(c2)Nc2nccc(n2)-c2ccc(nc2)NCCCN1 [Compound 5] | 2.51e-05 M | 7.59e-07 M | 7.3% | 6.92e-08 M |  |
| CC1CN2CCN1Cc1cccc(c1)Nc1nccc(n1)-c1ccc(nc1)NCCCNC(=O)C2 (single isomer, unassigned) [Compound 61] | > 3.02e-05 M | 1.32e-06 M |  | 4.47e-08 M | 6.78 % of cntrl |
| CN1CCCN(C)c2ccc(cn2)-c2ccnc(n2)Nc2ccc(C(N)=O)c(c2)CN2CCN(CC2)CC1=O [Compound 10] | 1.29e-05 M | 3.63e-07 M | 10.8% | 2.88e-07 M |  |
| O=C1CN2CCN(CC2)Cc2cccc(c2)Nc2nccc(n2)-c2ccc(nc2)NC(=O)CCN1 [Compound 85] | > 3.02e-05 M | 2.69e-06 M | 47.6% |  |  |
| O=C1CN2CCN(Cc3cccc(c3)Nc3nccc(n3)-c3ccc(nc3)NCCCN1)C(CO)C2 (single isomer, unassigned) [Compound 47] | 4.57e-06 M | < 3.02e-08 M |  | 8.32e-08 M | 7.88 % of cntrl |
| O=C1CN2CCN(Cc3cccc(c3)Nc3nccc(n3)-c3ccc(nc3)NCCCN1)C(C(F)(F)F)C2 (stereo not drawn) [Compound 50] | 4.9e-06 M | 1.12e-07 M | 12.4% | 3.98e-07 M |  |
| COCC1C(=O)NCCCNc2ccc(cn2)-c2ccnc(n2)Nc2cccc(c2)CN2CCN1CC2 (stereo not drawn) [Compound 66] | 4.17e-06 M | 7.76e-08 M | 6.72% | 1.41e-07 M |  |
| COCC1CN2CCN1Cc1cccc(c1)Nc1nccc(n1)-c1ccc(nc1)N(C)CCCN(C)C(=O)C2 (stereo not drawn) [Compound 97] | 2.24e-05 M | 1.51e-07 M | 24.6% | 5.37e-07 M |  |
| Cc1cc2cc(c1)Nc1nccc(n1)-c1ccc(nc1)N(C)CCCN(C)C(=O)CN1CCN(CC1)C2 [Compound 8] | > 3.02e-05 M | 1.41e-05 M | 41.1% |  |  |
| CN(C)C(=O)c1ccc2cc1CN1CCN(CC1)CC(=O)NCCCNc1ccc(cn1)-c1ccnc(n1)N2 [Compound 18] | > 3.02e-05 M | 1.91e-06 M | 23.4% | 9.12e-07 M |  |
| C#CCN1CCNC(=O)CN2CCN(CC2)Cc2cccc(c2)Nc2nccc(n2)-c2ccc(nc2)C1 [Compound 36] | 1.32e-06 M | 4.37e-08 M | 16% | 3.39e-07 M |  |
| O=C1CN2CCN(Cc3cccc(c3)Nc3nccc(n3)-c3ccc(nc3)NCCCN1)C(CO)C2 (stereo not drawn) [Compound 46] | 4.9e-06 M | 1.66e-07 M | 3.73% | 2.69e-08 M |  |
| C=CCCN1CCNC(=O)CN2CCN(CC2)Cc2cccc(c2)Nc2nccc(n2)-c2ccc(nc2)C1 [Compound 37] | 1.82e-07 M | 7.59e-09 M |  | 9.55e-08 M |  |
| Cc1c2cccc1Nc1nccc(n1)-c1ccc(nc1)NCCCNC(=O)CN1CCN(CC1)C2 [Compound 19] | > 3.02e-05 M | ~1.58e-06 M | 87.1% |  |  |

Now from value to compound:

| IC50 (EF2K [1]) | IC50 (EF2K [2]) | remaining activity at 1 µM [3] | IC50 [3] | VPS34_1microM_% of cntrl [3] | Compound |
| --- | --- | --- | --- | --- | --- |
| > 3.02e-05 M | > 3.02e-05 M | 53.2% |  |  | CN1CCCNc2ccc(cn2)-c2ccnc(n2)Nc2cccc(c2)CN2CCC(CC2)CC1=O [Compound 124] |
| 9.33e-06 M | 9.55e-07 M | 9.26% | 4.68e-07 M |  | CN1CCCN(C)c2ccc(cn2)-c2ccnc(n2)Nc2cccc(c2)CN2CCN(C)C(CC1=O)C2 (stereo not drawn) [Compound 129] |
| 1.66e-05 M | 3.02e-07 M | 36.3% |  |  | CN1CCN(CCOCC2CN3CCN2Cc2cccc(c2)Nc2nccc(n2)-c2ccc(nc2)N(C)CCCN(C)C(=O)C3)CC1 (stereo not drawn) [Compound 106] |
| > 3.02e-05 M | 1.48e-06 M | 7.68% | 3.47e-07 M |  | CN1CCCN(C)c2ccc(cn2)-c2ccnc(n2)Nc2cccc(c2)N2CCN(CC2)CC1=O [Compound 110] |
| > 1e-05 M | 2.57e-06 M | 14.6% | 1.48e-07 M |  | CS(=O)(=O)N1CCNC(=O)CN2CCN(CC2)Cc2cccc(c2)Nc2nccc(n2)-c2ccc(nc2)C1 [Compound 133] |
| > 3.02e-05 M | 1.95e-06 M |  | 8.13e-08 M | 8.17 % of cntrl | CC1CN2CCN1CC(=O)NCCCNc1ccc(cn1)-c1ccnc(n1)Nc1cccc(c1)C2 (single isomer, unassigned) [Compound 137] |
| > 3.02e-05 M | 7.94e-06 M | 8.1% | 1.41e-07 M |  | O=C1CN2CCN(CCc3cccc(c3)Nc3nccc(n3)-c3ccc(nc3)NCCCN1)CC2 [Compound 118] |
| > 3.02e-05 M | 1.78e-05 M | 25.1% | 3.02e-07 M |  | CN1CCCN(C)c2ccc(cn2)-c2ccnc(n2)Nc2cccc(c2)CN2CCN(CC1=O)CC2COCCO (single isomer, unassigned) [Compound 104] |
| 3.98e-06 M | 6.92e-08 M | 7.12% | 1.91e-07 M |  | O=C1CN2CCN(CC2)Cc2cccc(c2)Nc2nccc(n2)-c2ccc(nc2)CN(C(=O)C(F)(F)F)CCN1 [Compound 132] |
| 2.45e-05 M | 2.09e-07 M | 25.5% | 5.25e-07 M |  | CN(C)CCOCC1CN2CCN1Cc1cccc(c1)Nc1nccc(n1)-c1ccc(nc1)N(C)CCCN(C)C(=O)C2 (stereo not drawn) [Compound 108] |
| > 3.02e-05 M | 1.58e-05 M | 28.4% | 3.39e-07 M |  | CN1CCCNC(=O)CC2CCN(CC2)Cc2cccc(c2)Nc2nccc(n2)-c2ccc1nc2 [Compound 125] |
